Earlier results as cited in publication PMC5014611 (Bioorganic & medicinal chemistry, 2016).

Molecular target: T1, human GIVA cPLA2 (Homo sapiens, UniProt P47712)
T1 sequence (P47712 1-749): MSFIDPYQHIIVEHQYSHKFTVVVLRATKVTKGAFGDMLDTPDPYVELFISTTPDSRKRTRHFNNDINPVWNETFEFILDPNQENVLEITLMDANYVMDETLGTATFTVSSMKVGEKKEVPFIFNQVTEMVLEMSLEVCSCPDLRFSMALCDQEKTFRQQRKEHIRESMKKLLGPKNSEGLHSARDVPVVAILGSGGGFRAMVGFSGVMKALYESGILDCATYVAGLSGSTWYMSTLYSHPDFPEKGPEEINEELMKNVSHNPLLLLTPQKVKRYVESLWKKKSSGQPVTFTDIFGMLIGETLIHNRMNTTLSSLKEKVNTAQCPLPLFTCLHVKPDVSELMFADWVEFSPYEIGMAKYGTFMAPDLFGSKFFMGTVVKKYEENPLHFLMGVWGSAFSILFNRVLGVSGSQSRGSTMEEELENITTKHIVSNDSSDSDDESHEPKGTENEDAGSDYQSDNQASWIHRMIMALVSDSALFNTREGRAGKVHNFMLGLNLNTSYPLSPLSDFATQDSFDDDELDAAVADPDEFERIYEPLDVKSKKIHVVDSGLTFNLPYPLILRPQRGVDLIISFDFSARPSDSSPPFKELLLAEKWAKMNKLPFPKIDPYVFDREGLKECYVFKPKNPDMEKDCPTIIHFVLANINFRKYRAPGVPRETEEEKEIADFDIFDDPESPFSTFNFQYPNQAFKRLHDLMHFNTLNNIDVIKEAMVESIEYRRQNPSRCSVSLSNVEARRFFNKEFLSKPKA
Conditions: commercially available inhibitor

GIVA cPLA2 XI(50): 0.036 mole fraction
SMILES: CCCCC/C=C\C/C=C\C/C=C\C/C=C\CCCC(=O)C(F)(F)F [AATFMK, arachidonoyl trifluoromethyl ketone]
